The record followed here is article doi:10.64898/2025.12.03.692196v2, “Dimerization and Threonine-Dependent Stabilization Govern Human YRDC Catalysis” (biorxiv, 2026).

Substitutions are numbered along the chain they refer to.

Holding throughout (assay): biochemical
What all share (parameters): SYPRO Orange DSF; apparent Kd from Tm versus ligand concentration

The target of assay [1] is T1, YRDCWT (human YRDC, ΔN43) (Homo sapiens, UniProt Q86U90, C121A).
T1 construct: lacks first 43 residues (N-terminal truncation); N-terminal His6 tag removed with TEV; E. coli BL21(DE3); homodimer
T1 sequence (Q86U90 44-279 C121A): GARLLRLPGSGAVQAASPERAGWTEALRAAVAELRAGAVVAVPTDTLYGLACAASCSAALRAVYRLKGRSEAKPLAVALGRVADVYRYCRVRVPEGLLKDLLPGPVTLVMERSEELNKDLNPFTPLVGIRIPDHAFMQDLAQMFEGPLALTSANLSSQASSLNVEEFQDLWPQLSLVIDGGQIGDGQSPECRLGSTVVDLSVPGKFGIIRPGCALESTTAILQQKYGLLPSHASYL
Particulars: With L-threonine; DSF apparent KD. The protocol: (§1) Reactions were prepared in a MicroAmp™ 96-well optical reaction plate (Fisher Scientific) with a final volume of 20 μL per well, in assay buffer (50 mM Tricine pH 8.5, 10 mM MgCl₂) with 8 μM YRDC, and 5X SYPRO Orange dye (Invitrogen). The concentrations of substrates, including ATP, L-threonine, and NaHCO3, were varied based on the reaction type. In most cases wild-type YRDC and its mutants were assessed under various conditions, including enzyme alone, enzyme with ATP concentrations ranging from 10 µM to 500 µM, enzyme with L-threonine concentrations between 0.5 mM and 50 mM, either in the presence or absence of 500 µM ATP, and enzyme with NaHCO3 concentrations from 10 mM to 500 mM in the presence of both 500 µM ATP and 25 mM L-threonine. Fluorescence emission was recorded using Applied Biosystems® QuantStudio 1 Real-Time PCR system (λex = 520 nm, λem = 558 nm). Temperature increases were performed over the range of 25–95 °C, with increments of 1 °C/min, while changes in fluorescence intensity were continuously measured. Each experiment was conducted in triplicate, and the data are presented as the mean ± standard deviation. Control reactions, prepared without the enzyme, were used to account for background fluorescence and were subtracted from experimental measurements. Melting curves were fitted using a Boltzmann sigmoidal model, and thermal stability (Tₘ) values were determined from the inflection point of the curve. The dissociation constant (KD) of the enzyme with each substrate is calculated based on the DSF single binding equation[45]: [drawing 1] Where Tm,0 and Tm,∞refer to the melting temperature (Tm) in °C at zero and infinite ligand concentrations, respectively, P represents the protein concentration and Kd,app is the apparent dissociation constant obtained from ligand-dependent thermal stabilisation.

For assay [2], the target named is T2, YRDCWT (human YRDC, ΔN43) (Homo sapiens, UniProt Q86U90, R253K).
T2 construct: lacks first 43 residues (N-terminal truncation); N-terminal His6 tag removed with TEV; E. coli BL21(DE3); homodimer
T2 sequence (Q86U90 44-279 R253K): T1 sequence (Q86U90 44-279 C121A) with A78C, R210K
Particulars: With L-threonine; DSF apparent KD. The method, then:
as §1

Another assay addresses T3, YRDCS195A (Homo sapiens, UniProt Q86U90, S238A).
T3 construct: gene YRDC; lacks N-terminal 43 residues; printed numbering S195A is of the truncated protein
T3 sequence (Q86U90 1-279 S238A): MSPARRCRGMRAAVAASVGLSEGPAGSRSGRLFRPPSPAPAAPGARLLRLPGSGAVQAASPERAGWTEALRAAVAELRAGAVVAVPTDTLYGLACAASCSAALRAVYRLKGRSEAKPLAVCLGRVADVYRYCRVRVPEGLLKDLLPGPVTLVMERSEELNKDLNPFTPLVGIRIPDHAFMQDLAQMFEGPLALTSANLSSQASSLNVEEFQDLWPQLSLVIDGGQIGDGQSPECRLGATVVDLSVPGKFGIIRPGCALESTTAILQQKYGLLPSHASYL
The note with it: With L-threonine; DSF apparent KD. The protocol: as §1

For assay [3], the target named is T4, YRDCWT (human YRDC, ΔN43) (Homo sapiens, UniProt Q86U90).
T4 construct: lacks first 43 residues (N-terminal truncation); N-terminal His6 tag removed with TEV; E. coli BL21(DE3); homodimer
T4 sequence (Q86U90 with tags, fused parts or gaps DEL265-265): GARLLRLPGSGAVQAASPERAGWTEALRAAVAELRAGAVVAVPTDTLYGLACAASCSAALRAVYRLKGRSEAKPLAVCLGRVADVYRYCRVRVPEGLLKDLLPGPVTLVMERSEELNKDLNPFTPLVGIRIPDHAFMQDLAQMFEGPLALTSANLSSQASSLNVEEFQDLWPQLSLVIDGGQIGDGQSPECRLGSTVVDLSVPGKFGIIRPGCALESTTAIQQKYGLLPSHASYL
The note with it: With ATP; DSF apparent KD. The protocol: as §1

The target in assay [4] is T5, YRDCWT (human YRDC, ΔN43) (Homo sapiens, UniProt Q86U90, I221T).
T5 construct: lacks first 43 residues (N-terminal truncation); N-terminal His6 tag removed with TEV; E. coli BL21(DE3); homodimer
T5 sequence (Q86U90 44-279 I221T): T1 sequence (Q86U90 44-279 C121A) with A78C, I178T
The note with it: DSF apparent KD. The method, then:
as §1

Assay [5] concerns the target T6, YRDCWT (human YRDC, ΔN43) (Homo sapiens, UniProt Q86U90).
T6 construct: lacks first 43 residues (N-terminal truncation); N-terminal His6 tag removed with TEV; E. coli BL21(DE3); homodimer
T6 sequence (Q86U90 44-279 C121A): T1 sequence (Q86U90 44-279 C121A)
The note with it: DSF apparent KD. The protocol:
as §1

Another assay has as its target T7, (human YRDC, ΔN43) (Homo sapiens, UniProt Q86U90, A84V).
T7 construct: lacks first 43 residues (N-terminal truncation); N-terminal His6 tag removed with TEV; E. coli BL21(DE3); homodimer
T7 sequence (Q86U90 44-279 A84V): T1 sequence (Q86U90 44-279 C121A) with A41V, A78C
The note with it: With ATP and L-threonine; DSF apparent KD. The protocol:
as §1

As for `Nc1ncnc2c1ncn2[C@@H]1O[C@H](COP(=O)(O)OP(=O)(O)OP(=O)(O)O)[C@@H](O)[C@H]1O` [ATP], the Kd was found to be 133 ± 29.7 µM in assay [1], 148 ± 112 µM in assay [2] and 48.9 ± 37.8 µM on YRDCS195A.
With `C[C@@H](O)[C@H](N)C(=O)O` [L-threonine], the Kd in assay [3] came out at 2.1 ± 0.7 mM; in assay [4] (With ATP), 0.4 ± 0.1 mM; in assay [5] (With ATP), 1.2 ± 0.3 mM.
Regarding `O=C(O)O` [bicarbonate], the Kd was determined as 8.3 ± 4.2 mM in assay [4] (With ATP and L-threonine); 6.5 ± 2 mM at (human YRDC, ΔN43); 3.7 ± 2 mM in assay [5] (With ATP and L-threonine).
